SMILES strings stand for the structures. Read-outs that look alike come from different tables or passages of the source.

Series [1] relates to C-33 A (human cervical carcinoma). In words: MTT assay, C-33 A cells. It counts as cell-based. (In general: Tetrazolium dyes change colour on reduction, which living cells bring about.)
Experimental: (§1) MTT assay: Cytotoxic profiles of the compounds were assessed in the following cell lines (passage number not exceeding 15): MCF-7 (human breast cancer) C-33 A (human cervical carcinoma) and HEK293T (transformed human kidney). Around 6000 cells were seeded in 96 well transparent flat-bottom tissue-culture plate in 200 μl of Dulbecco's Modified Eagle Medium (DMEM) containing 10% FBS (Fetal Bovine Serum) and were incubated for 24 h at 37° C. and 5% CO2. We performed an initial control experiment with vehicle alone (0.1% DMSO-DMEM) on cells with different dosages of near-IR light and compared it to unexposed counterparts. […] One such plate was exposed to near-IR light for 45 min in phenol-red free DMEM (200 μl) and room temperature was maintained using a cooling system. Another identical plate was kept in dark. The plates were incubated for another 24 h in dark. Finally, MTT [3-(4,5-dimethylthiazole-2-yl)-2,5-diphenyltetrazolium bromide] (25 μl of 5 mg/ml solution in PBS) was added and incubated for 3-4 h. The absorbance of the precipitated formazan was recorded at 550 nm in DMSO. Cells treated with 0.1% DMSO-DMEM was kept as controls which represented 100% viability. The half-growth inhibitory concentration (IC50) values were calculated by nonlinear regression analysis using GraphPad Prism5. The data is represented from two independent set of experiments, each of which was performed in triplicate.
For series [2], the system named is MCF-7 (human breast cancer). The series can be described thus: MTT assay, MCF-7 cells. It counts as cell-based.
Experimental: as §1
Series [3] relates to ctDNA. The series can be described thus: DNA bound Pt content by ICP-MS. It counts as biochemical. The following applies: extended incubation with ctDNA in the dark. How it is done: DNA bound Pt content: A 1×-PBS solution containing ctDNA (500 μM) and 1 (50 μM in 0.1% DMSO-PBS) was irradiated with near-IR light (720-740 nm) for 15, 30 and 60 mins. Another identical set was incubated in dark for comparison. After treatment, the DNA was precipitated from the solutions using 10 mL of cooled ethanol, vortexed, and collected by centrifugation. The precipitate was washed twice with cooled ethanol (5 mL) to remove soluble platinum complexes. The white fibrous precipitate was dissolved using 200 μl of conc. HNO3 for 12 h and diluted with distilled water to 2% HNO3-water solutions. Platinum content was measured by ICP-MS instrument. Untreated samples (DNA alone, complex alone) were kept for control. Platinum standards were made by dissolving K2PtCl4 in 98% aq. HNO3 and used for calibration. The data along with the deviation is reported based on experiments performed in duplicate.

Series [4] has as its system human cancer cell lines. In words: MTT cytotoxicity in a panel of human cancer cell lines. In kind it is cell-based. The following applies: dark, similar conditions. How it is done:
MTT assay: Cytotoxic profiles of the compounds were assessed in the following cell lines (passage number not exceeding 15): MCF-7 (human breast cancer) C-33 A (human cervical carcinoma) and HEK293T (transformed human kidney). Around 6000 cells were seeded in 96 well transparent flat-bottom tissue-culture plate in 200 μl of Dulbecco's Modified Eagle Medium (DMEM) containing 10% FBS (Fetal Bovine Serum) and were incubated for 24 h at 37° C. and 5% CO2. We performed an initial control experiment with vehicle alone (0.1% DMSO-DMEM) on cells with different dosages of near-IR light and compared it to unexposed counterparts. The cells were unharmed by light and vehicle alone up to 45 min of photoirradiation. Cells were treated with various concentrations of 1, 2, IR797-acac, cisplatin and an equimolar mixture of IR797-acac and cisplatin in 0.1% DMSO-DMEM for 4 h or 48 h in the dark. One such plate was exposed to near-IR light for 45 min in phenol-red free DMEM (200 μl) and room temperature was maintained using a cooling system. Another identical plate was kept in dark. The plates were incubated for another 24 h in dark. Finally, MTT [3-(4,5-dimethylthiazole-2-yl)-2,5-diphenyltetrazolium bromide] […] The absorbance of the precipitated formazan was recorded at 550 nm in DMSO. […] The half-growth inhibitory concentration (IC50) values were calculated by nonlinear regression analysis using GraphPad Prism5. […]

The nature of series [5]: Photodecomposition and dark stability (absorbance, LC-MS). It counts as physicochemical. The settings on record: buffer, pH 7.4. The method, then:
High performance liquid chromatography: For verifying purity, samples (25 μl in 2.5% DMSO-H2O) were loaded on an analytical C18 column and gradient was maintained at 10-100 percent of MeCN—H2O from 10-50 min. The absorbance was measured at different wavelengths within the range of 200-800 nm. For photolysis experiments, solution of 1 (30 μl of 100 nM in 0.01% of DMSO-PBS, irradiated for 1 min) was injected on the column and eluted using the same gradient as above.
Liquid-chromatography mass spectral experiments: Solutions of 1 and IR797-acac (100 nM in 0.01% DMSO-PBS) were used to carry out LC-MS studies. Samples were injected on a self-packed fused silica (polymicro technologies) trap column (360 micron o.d.×100 micron i.d.) with a Kasil frit packed with 5-15 micron irregular phenyl C-18 YMC packing. The trap column is connected to an analytical column (360 micron×50 micron) with a fritted tip at 5 micron or less (New Objective) packed with 5 μm phenyl C-18 YMC packing. Compounds were initially trapped and then eluted into a Thermo Finnigan LCQ deca XP max mass spectrometer (Thermo Scientific) with an acetonitrile gradient from 0% to 80% over 5 minutes at a flow rate of between 50-150 nl/min. […]

Series [6] relates to ctDNA. In words: DNA melting experiments and Hoechst displacement assays. The settings on record: in the dark. It counts as binding. How it is done: DNA thermal denaturation experiments: The DNA thermal denaturation experiments were performed by monitoring the absorption intensity of ct-DNA (200 μM) at 260 nm at increasing temperatures (from 40 to 90° C.), both in the absence and presence of complex 1 and IR797-acac (20 μM in 1% DMSO-DPBS solutions, pH=7.2). The experiments were performed using Agilent UV-visible spectrophotometer connected to a Peltier thermostat for temperature control. Data was recorded with increasing the temperature of the solution by 1.0° C. per min. The derivative of the melting plots gave the DNA melting temperature (Tm) of the ct-DNA. Ethidium bromide (20 μM) as a standard intercalator was used for comparison.

Series [7] is described as follows: Solubility in solvents. It counts as physicochemical. The method, then:
Synthesis of IR797-acac: IR797 chloride (250 mg, 0.49 mmol), acetylacetone (245 μl, 2.45 mmol) and N,N-diisopropylethylamine (90 μl, 0.49 mmol) were dissolved in acetonitrile (10 mL) in a sealed vial. The dark green colored solution was heated at 70° C. on a microwave apparatus (Discover, CEM, 60 W) for 15 mins. The progress of the reaction was monitored via TLC and stopped only after full consumption of the starting dye. The reaction mixture was allowed to cool down to room temperature and dichloromethane (50 mL) was added. The organic layer was washed using saturated sodium bicarbonate solution (2×10 ml), dried over anhydrous sodium sulfate, filtered, and evaporated using a rotavac. The crude material was subjected to column chromatography using ethyl acetate (100%) and dichloromethane-methanol eluents (0-10%) to yield pure product, IR797-acac (150 mg, 50% yield). ^1H NMR (400 MHz, CDCl3): δ (ppm)=7.43-7.36 (m, 4H), 7.31 (d, J=7.4 Hz, 2H), 7.21 (t, J1=J2=7.2 Hz, 2H), 7.11 (d, J=8.0 Hz, 2H), 6.20 (d, J=14 Hz, 2H), 3.74 (s, 6H), 3.15 (s, 4H), 2.00 (s, 6H), 1.58 (s, 12H). ^13C NMR (100 MHz, CDCl3): δ (ppm)=191.42, 170.78, 144.66, 142.96, 140.71, 137.40, 128.80, 124.99, 122.04, 110.04, 103.39, 48.82, 32.53, 28.42, 23.60. ESI-MS in MeCN: m/z (expected)=533.33, m/z (observed)=533.32 [M-Cl]^+ (100%). […]

With `N.N.[Cl][Pt][Cl]` [CP, cisplatin, reference compound], the IC50 (usually the concentration at which inhibition is half-maximal) in series [1] (cisplatin incubated 48 h in the dark, light 45 mins, 720-740 nm, read-out: IC50 C-33 A Light) worked out at 16.1 ± 1.5 µM; in series [1] (cisplatin incubated 48 h in the dark, read-out: IC50 C-33 A Dark), 17.7 ± 1.5 µM; in series [2] (cisplatin incubated 48 h in the dark, light 45 mins, 720-740 nm, read-out: IC50 MCF-7 Light), 22.5 ± 3.2 µM; in series [2] (cisplatin incubated 48 h in the dark, read-out: IC50 MCF-7 Dark), 25 ± 2.2 µM.
On to `CC1=CC(C)=[O+][Pt-2]([NH3+])([NH3+])[O]1.O=[N+]([O-])[O-]` (centres unmarked) [Complex 2, [Pt(NH3)2(acac)](NO3)], reference compound], for which, in series [3], the “incorporation of Pt into DNA in the dark” value is reported as “slow incorporation”.
As to `CC(=O)C(=C(C)O)C1=C(C=CC2=[N+](C)c3ccccc3C2(C)C)CCC1=CC=C1N(C)c2ccccc2C1(C)C.[Cl-]` [IR797-acac], the IC50 in series [1] (4 h in dark, then light 45 mins, 720-740 nm, 3.5 ± 1.5 mW·cm^−2, read-out: IC50 C-33 A Light) came out at 0.3 ± 0.07 µM; in series [1] (4 h in the dark, read-out: IC50 C-33 A Dark), 1.2 ± 0.1 µM; in series [2] (4 h in dark, then light 45 mins, 720-740 nm, 3.5 ± 1.5 mW·cm^−2, read-out: IC50 MCF-7 Light) it was 4.7 ± 0.8 µM; in series [2] (4 h in the dark, read-out: IC50 MCF-7 Dark) it was 5.9 ± 0.3 µM. In addition, the “toxicity in unexposed cells” value in series [4] was “toxic on its own”. For the same compound, the “half-life of photodecomposition t1/2^L” value in series [5] is approximately 40 s. The “stability in dark t1/2^D” value in series [5] is reported as approximately 10 h. In addition, the DNA interaction mode result in series [6] is recorded as “interact with the minor groove of ctDNA”. The solubility entry in series [7] is “readily soluble in polar solvents”.
